Results published in patent US4072760A, “Bronchospasmolytic phenylethanolamines” (Pharmacia AS, priority 1974, dated 1978).
Read-outs that look alike come from different tables or passages of the source.

Key:
[1] = system: β2 -stimulation, lungs guinea pig; test: Bronchospasmolytic effect (β2 -stimulation), Konzett-Rossler technique in anaesthetized guinea pig lungs; format: in vivo; conditions: Cavia porcellus, doses as free base of the racemic compound
[2] = system: β1 -stimulation, heart rate mice; test: Heart rate increasing effect (β1 -stimulation) in pentobarbital anaesthetized mice; format: in vivo; conditions: Mus musculus, iv, dose giving an increase in heart rate of 100 beats/min, as free base
Protocol: An especially valuable feature of the present invention is that typical and preferred representative of the compounds of the invention show a high bronchial selectivity (ratio of bronchospasmolytic activity to heart rate increasing effect) as compared to existing well-known broncholytics. […] The ratio, heart rate increasing dose ("ED 100") divided by bronchospasmolytic dose (ED 50), is a measure of the degree of selectivity of the bronchospasmolytic action. This ratio was calculated for a number of the compounds of the invention and for some of the most relevant compounds of reference.

[3] = system: β2 -stimulation versus β1 -stimulation; test: Bronchial selectivity: heart rate increasing dose ("ED 100") divided by bronchospasmolytic dose (ED 50); format: in vivo; conditions: heart rate ED 100 (mice, i.v.) / bronchospasmolytic ED 50 (guinea pig, i.v.)
Protocol: The ratio, heart rate increasing dose ("ED 100") divided by bronchospasmolytic dose (ED 50), is a measure of the degree of selectivity of the bronchospasmolytic action. This ratio was calculated for a number of the compounds of the invention and for some of the most relevant compounds of reference.

[4] = in vivo; conditions: mouse
Text: Furthermore the acute toxicity in mice after intraveneous and oral administration is given.

[5] = system: β-stimulation of the skeletal muscles; test: Tremor-inducing activity (β-stimulation of the skeletal muscles) compared to bronchospasmolytic activity in cats (Bowman and Nott); format: in vivo
Protocol: For a few of the compounds of the invention, the tremor-inducing activity (β-stimulation of the skeletal muscles) was determined in cats (in accordance with the technique of Bowman, W. C. and Nott, M. W.: Actions of some sympathomimetic bronchodilator and beta-adrenoceptor blocking drugs on contractions of the cat soleus muscle, Brit. J. Pharmac., 1970, 38, 37-49) and compared to the bronchospasmolytic activity in the same species.

[6] = iv, read-out: β2 -stimulation lungs guinea pig ED 50 i.v.
[7] = i.d. = intraduodenally, read-out: β2 -stimulation lungs guinea pig ED 50 i.d.

| SMILES | ED50 [1, 6] [mg/kg] | ED (increase of 100 beats/min) [2] [mg/kg] | ED50 [1, 7] [mg/kg] | Ratio "ED 100"/ED 50 [3] | LD50 ([4]; iv) [mg/kg] | LD50 ([4]; po) [mg/kg] | ratio between bronchospasmolytic dose and tremor-inducing dose, compared with salbutamol [5] |
| --- | --- | --- | --- | --- | --- | --- | --- |
| CC(C)NCC(O)c1ccc(O)c(O)c1 (centres unmarked) [Isoprenaline, reference compound] | 0.005 | 0.0003 |  |  |  |  |  |
| COc1c(C)cc(CNc2cc(C(O)CNC(C)(C)C)ccc2O)cc1C.Cl (stereo not drawn) [3-(3,5-Dimethyl-4-methoxybenzylamino)-4-hydroxy-α-(tert.butylaminomethyl)benzylalcohol hydrochloride] | 0.03 | 0.3 | 3 | 10 | 20 | 1500 |  |
| CC(C)(C)NCC(O)c1ccc(O)c(NC(=O)c2cc(O)cc(O)c2)c1.Cl (stereo not drawn) [3-(3,5-Dihydroxybenzamido)-4-hydroxy-α-(tert.butylaminomethyl)-benzylalcohol hydrochloride] | 0.3 |  | 20 |  | 20 | > 2000 |  |
| CN(C)c1ccc(CNc2cc(C(O)CNC(C)(C)C)ccc2O)cc1.Cl (stereo not drawn) [3-(4-Dimethylaminobenzylamino)-4-hydroxy-α-(tert.butylaminomethyl)benzylalcohol hydrochloride] | 0.02 | ≥ 0.1 |  | ≥ 5 | 20 | 700 |  |
| CC(C)(C)NCC(O)c1ccc(O)c(NC(=O)c2ccc(Cl)c(Cl)c2)c1.Cl (stereo not drawn) [3-(3,4-Dichlorobenzamido)-4-hydroxy-α-(tert.butylaminomethyl)benzylalcohol hydrochloride] | 0.1 |  |  |  | 60 | > 2000 |  |
| CC(C)Oc1ccc(CNc2cc(C(O)CNC(C)(C)C)ccc2O)cc1.Cl (stereo not drawn) [3-(4-Isopropoxybenzylamino)-4-hydroxy-α-(tert.butylaminomethyl)-benzylalcohol hydrochloride] | 0.03 | 0.1 |  | 3.3 | 20 | 400 |  |
| CC(C)(C)NCC(O)c1ccc(O)c(NC(=O)c2ccc([N+](=O)[O-])cc2)c1.Cl (stereo not drawn) [3-(4-nitrobenzamido)-4-hydroxy-α-(tert.butylaminomethyl)benzylalcohol hydrochloride] | 0.1 | > 1 | 10 | > 10 | 40 | > 2000 |  |
| CC(C)NCC(O)c1ccc(O)c(NS(C)(=O)=O)c1 (centres unmarked) [Soterenol, reference compound] | 0.02 | 0.04 |  | 2 | 60 | 750 |  |
| CC(C)(C)NCC(O)c1ccc(O)c(CO)c1 (centres unmarked) [Saloutamol, salbutamol, reference compound] | 0.01 | 0.1 | 5 |  |  |  |  |
| Cc1ccc(CNc2cc(C(O)CNC(C)(C)C)ccc2O)cc1.Cl (stereo not drawn) [3-(4-Methylbenzylamino)-4-hydroxy-α-(tert.butylaminomethyl)benzylalcohol hydrochloride] | 0.07 |  |  |  | 20 | 700 |  |
| CC(C)(C)NCC(O)c1ccc(O)c(NCc2ccc([N+](=O)[O-])cc2)c1.Cl (stereo not drawn) [3-(4-Nitrobenzylamino)-4-hydroxy-α-(tert.butylaminomethyl)-benzylalcohol hydrochloride] | 0.01 | 0.1 | 0.5 | 10 | 60 | 400 |  |
| COCCOc1ccc(CNc2cc(C(O)CNC(C)(C)C)ccc2O)cc1.Cl (stereo not drawn) [3-[4-(2-Methoxyethoxy)benzylamino]-4-hydroxy-α-(tert.butylaminomethyl)-benzylalcohol hydrochloride] | 0.01 | 0.1 | 1 | 10 | 20 | > 1000 |  |
| CC(C)(C)NCC(O)c1ccc(O)c(NCc2ccc(O)cc2)c1.Cl (stereo not drawn) [3-(4-Hydroxybenzylamino)-4-hydroxy-α-(tert.butylaminomethyl)benzylalcohol hydrochloride] | 0.01 | 0.07 | 10 | 7 | 20 | > 2000 |  |
| CC(C)(C)NCC(O)c1cc(O)cc(O)c1 (centres unmarked) [Terbutaline, reference compound] | 0.03 | 0.3 | 10 | 10 | 40 | > 2000 |  |
| CC(C)(C)NCC(O)c1ccc(O)c(NCc2ccc(OCC(N)=O)cc2)c1 (stereo not drawn) [3-[4-(carbamoylmethoxy)benzylamino]-4-hydroxy-α-(tert.butylaminomethyl)benzylalcohol] | 0.01 | 0.1 | 10 | 10 | 20 | > 1000 |  |
| COc1ccc(CNc2cc(C(O)CNC(C)(C)C)ccc2O)cc1OC.Cl (stereo not drawn) [3-(3,4-Dimethoxybenzylamino)-4-hydroxy-α-(tert.butylaminomethyl)benzylalcohol hydrochloride] | 0.01 | 0.09 | 10 | 9 | 20 | > 2000 |  |
| CC(C)(C)NCC(O)c1ccc(O)c(NCc2cccc(O)c2)c1 (stereo not drawn) [3-(3-hydroxybenzylamino)-4-hydroxy-α-(tert.butylaminomethyl) benzylalcohol] | 0.01 | 0.025 | 10 | 2.5 | 20 | ≥ 2000 |  |
| CC(C)(C)NCC(O)c1ccc(O)c(NC(=O)c2ccc(Cl)cc2)c1.Cl (stereo not drawn) [3-(4-Chlorobenzamido)-4-hydroxy-α-(tert.butylaminomethyl)benzylalcohol hydrochloride] | 0.5 |  |  |  | 60 | > 2000 |  |
| CC(C)NCC(O)c1cc(O)cc(O)c1 (centres unmarked) [Orciprenaline, reference compound] | 0.1 | 0.01 |  |  |  |  |  |
| COc1cc(CNc2cc(C(O)CNC(C)(C)C)ccc2O)ccc1O.Cl (stereo not drawn) [3-(3-Methoxy-4-hydroxybenzylamino)-4-hydroxy-α-(tert.butylaminomethyl)-benzylalcohol hydrochloride] | 0.02 | 0.05 |  | 2.5 | 10 to 30 | > 2000 |  |
| COc1ccc(C(=O)Nc2cc(C(O)CNC(C)(C)C)ccc2O)cc1.Cl (stereo not drawn) [3-(4-methoxybenzamido)-4-hydroxy-α-(tert.butylaminomethyl)benzylalcohol hydrochloride] | 0.1 | > 1 | 10 | > 10 | 80 | > 2000 | the same ratio between bronchospasmolytic dose and tremor-inducing dose as salbutamol |
| CC(C)(C)NCC(O)c1ccc(O)c(NC(=O)c2cccc([N+](=O)[O-])c2)c1.Cl (stereo not drawn) [3-(3-Nitrobenzamido)-4-hydroxy-α-(tert.butylaminomethyl)benzylalcohol hydrochloride] | 0.3 |  |  |  | 60 | > 2000 |  |
| CCOc1ccc(CNc2cc(C(O)CNC(C)(C)C)ccc2O)cc1.Cl (stereo not drawn) [3-(4-Ethoxybenzylamino)-4-hydroxy-α-(tert.butylaminomethyl)benzylalcohol hydrochloride] | 0.01 | 0.1 | 5 | 10 | 20 | 400 |  |
